Among the data in patent US20230135635A1, “INHIBITORS OF ULK1/2 AND METHODS OF USING SAME” (SALK INSTITUTE FOR BIOLOGICAL STUDIES, priority 2020, published 2023) are IC50 values, retold here.

SMILES strings stand for the structures. A value given as a limit tells only on which side of the number the result lay.

This assay concerns the target T1, recombinant human ULK1 protein (1-649) (Homo sapiens, UniProt O75385).
T1 construct: recombinant human ULK1 protein (1-649, SignalChem #U01-11G); purchased SignalChem U01-11G
T1 sequence (O75385 1-649): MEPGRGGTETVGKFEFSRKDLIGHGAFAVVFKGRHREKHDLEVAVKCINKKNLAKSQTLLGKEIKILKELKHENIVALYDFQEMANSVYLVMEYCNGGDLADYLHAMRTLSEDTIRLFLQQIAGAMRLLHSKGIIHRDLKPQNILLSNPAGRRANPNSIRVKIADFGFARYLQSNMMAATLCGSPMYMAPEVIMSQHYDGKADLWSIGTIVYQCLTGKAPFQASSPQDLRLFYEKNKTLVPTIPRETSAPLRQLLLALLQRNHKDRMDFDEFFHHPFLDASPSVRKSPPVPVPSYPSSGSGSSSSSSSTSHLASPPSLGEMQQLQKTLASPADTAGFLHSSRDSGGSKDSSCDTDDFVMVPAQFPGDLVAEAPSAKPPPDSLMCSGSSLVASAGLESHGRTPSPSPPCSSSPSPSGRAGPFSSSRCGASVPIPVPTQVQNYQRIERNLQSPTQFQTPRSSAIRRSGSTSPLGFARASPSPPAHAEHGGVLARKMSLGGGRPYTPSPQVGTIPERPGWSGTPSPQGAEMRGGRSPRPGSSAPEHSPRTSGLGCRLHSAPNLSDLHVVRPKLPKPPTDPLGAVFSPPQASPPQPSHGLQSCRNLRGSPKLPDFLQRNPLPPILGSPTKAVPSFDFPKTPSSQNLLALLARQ
The assay can be described thus: ULK1 inhibition assay (ADP Glo). It is filed as biochemical. To be noted: Table 1; 25 uM ATP, MBP substrate, one hour. The protocol:
Illustrative compounds of Formula I and related analogs are shown in Table 1 (along with their respective IC50 values for ULK1 inhibition assays). For ADP Glo assay, IC50s are represented nM, with A representing IC50<1 nM, B representing 10 nM>IC50>1 nM, and C representing IC50>10 nM. NT indicates the compound was not tested. ULK1 inhibition assays were performed in a 5 uL reaction volume containing 2 ug/mL recombinant human ULK1 protein (1-649, SignalChem #U01-11G) and 80 ug/mL myelin basic protein (MBP, Sigma-Aldrich #M1891) in the presence of 25 uM ATP (Sigma-Aldrich A7699). ULK 1 inhibition was assessed after one hour. Compounds were tested in triplicate in a 16-dose IC50 mode with 3-fold serial dilution and a starting dose of 30 uM. Staurosporine, a non-selective protein kinase inhibitor, was used in the assay as a positive control.
According to another embodiment, the present disclosure provides methods of producing the above-defined compounds. The compounds may be synthesized using any suitable techniques. Advantageously, these compounds are conveniently synthesized from readily available starting materials. Synthetic chemistry transformations and methodologies useful in synthesizing the compounds described herein are known in the art and include, for example, those described in R. Larock, Comprehensive Organic Transformations (1989); T. W. Greene and P. G. M. Wuts, Protective Groups in Organic Synthesis, 2d. Ed. (1991); L. Fieser and M. Fieser, Fieser and Fieser's Reagents for Organic Synthesis (1994); and L. Paquette, ed., Encyclopedia of Reagents for Organic Synthesis (1995).). In general, synthesis and measurements of ULK1 inhibitory activity of the compounds described herein was performed using method analogous to those previously described in PCT International Application No. PCT/US2015/046777 which is hereby incorporated by reference in its entirety.
For `CNC(=O)c1ccccc1Oc1nc(Nc2ccc3c(c2)CCN(CCOC)C3)ncc1C(F)(F)F` [Compound A121, 2-((2-((2-(2-Methoxyethyl)-1,2,3,4-tetrahydroisoquinolin-6-yl)amino)-5-(trifluoromethyl)pyrimidin-4-yl)oxy)-N-methylbenzamide], the IC50 was over 10 nM.
Turning to `COCCN1CCc2cc(Nc3ncc(C(F)(F)F)c(N4CCc5ccccc54)n3)ccc2C1` [Compound A123, N-(4-(Indolin-1-yl)-5-(trifluoromethyl)pyrimidin-2-yl)-2-(2-methoxyethyl)-1,2,3,4-tetra-hydroisoquinolin-6-amine], the IC50 was over 10 nM.
For `CNC(=O)c1ccccc1Oc1nc(Nc2ccc3c(c2)CCN(CCOC)C3)ncc1Cl` [Compound A124, 2-((5-chloro-2-((2-(2-methoxyethyl)-1,2,3,4-tetrahydroisoquinolin-6-yl)amino)pyrimidin-4-yl)oxy)-N-methylbenzamide] the value was over 10 nM.
As to `CNC(=O)c1ccccc1Oc1nc(Nc2ccc3c(c2)CCN(CCOC)C3)ncc1Br` [Compound A125, 2-((5-Bromo-2-((2-(2-methoxyethyl)-1,2,3,4-tetrahydroisoquinolin-6-yl)amino)pyrimidin-4-yl)oxy)-N-methylbenzamide], the IC50 is over 10 nM.
On to `CNC(=O)c1ccccc1Nc1nc(Nc2ccc3c(c2)CCNC3)ncc1Br` [Compound A126, 2-[5-Bromo-2-(1,2,3,4-tetrahydro-isoquinolin-6-ylamino)-pyrimidin-4-ylamino]-N-methyl-benzamide], for which the IC50 is over 10 nM.
Consider `CNC(=O)c1ccccc1Nc1nc(Nc2ccc3c(c2)CCN(CC(=O)N2CCOCC2)C3)ncc1Br` [Compound A127, 2-{5-Bromo-2-[2-(2-morpholin-4-yl-2-oxo-ethyl)-1,2,3,4-tetrahydro-isoquinolin-6-ylamino]-pyrimidin-4-ylamino}-N-methyl-benzamide], for which the IC50 was over 10 nM.
For `CNC(=O)c1ccccc1Nc1nc(Nc2ccc3c(c2)CCN(C(=O)N2CCN(C)CC2)C3)ncc1Br` [Compound A128, 2-{5-Bromo-2-[2-(4-methyl-piperazine-1-carbonyl)-1,2,3,4-tetrahydro-isoquinolin-6-ylamino]-pyrimidin-4-ylamino}-N-methyl-benzamide] the value was over 10 nM; for `CNC(=O)c1ccccc1Nc1nc(Nc2ccc3c(c2)CCN(Cc2ccc(OC)cc2)C3)ncc1Br` [Compound A129, 2-{5-Bromo-2-[2-(4-methoxy-benzyl)-1,2,3,4-tetrahydro-isoquinolin-6-ylamino]-pyrimidin-4-ylamino}-N-methyl-benzamide], over 10 nM; for `CNC(=O)c1ccccc1Nc1nc(Nc2ccc3c(c2)CCN(Cc2cccnc2)C3)ncc1Br` [Compound A130, 2-[5-Bromo-2-(2-pyridin-3-ylmethyl-1,2,3,4-tetrahydro-isoquinolin-6-ylamino)-pyrimidin-4-ylamino]-N-methyl-benzamide], over 10 nM.
For `CNC(=O)c1ccccc1Nc1nc(Nc2ccc3c(c2)CCN(Cc2ccncc2)C3)ncc1Br` [Compound A131, 2-[5-Bromo-2-(2-pyridin-4-ylmethyl-1,2,3,4-tetrahydro-isoquinolin-6-ylamino)-pyrimidin-4-ylamino]-N-methyl-benzamide] the value was over 10 nM; for `CNC(=O)c1ccccc1Nc1nc(Nc2ccc3c(c2)CCN(C(=O)CN)C3)ncc1Br` [Compound A132, 2-{2-[2-(2-Amino-acetyl)-1,2,3,4-tetrahydro-isoquinolin-6-ylamino]-5-bromo-pyrimidin-4-ylamino}-N-methyl-benzamide], over 10 nM.
With `CNCC(=O)N1CCc2cc(Nc3ncc(Br)c(Nc4ccccc4C(=O)NC)n3)ccc2C1` [Compound A133, 2-{5-Bromo-2-[2-(2-methylamino-acetyl)-1,2,3,4-tetrahydro-isoquinolin-6-ylamino]-pyrimidin-4-ylamino}-N-methyl-benzamide], the IC50 is over 10 nM.
For `CNC(=O)c1ccccc1Nc1nc(Nc2ccc3c(c2)CCN(C(=O)CCC(=O)O)C3)ncc1Br` [Compound A134, 4-{6-[5-Bromo-4-(2-methylcarbamoyl-phenylamino)-pyrimidin-2-ylamino]-3,4-dihydro-1H-isoquinolin-2-yl}-4-oxo-butyric acid] the value was over 10 nM; for `CNC(=O)c1ccccc1Nc1nc(Nc2ccc3c(c2)CCN(C)C3)ncc1Br` [Compound A135, 2-[5-Bromo-2-(2-methyl-1,2,3,4-tetrahydro-isoquinolin-6-ylamino)-pyrimidin-4-ylamino]-N-methyl-benzamide], over 10 nM.
On to `CNC(=O)c1ccccc1Nc1nc(Nc2ccc3c(c2)CCN(C(=O)CCN)C3)ncc1Br` [Compound A136, 2-{2-[2-(3-Amino-propionyl)-1,2,3,4-tetrahydro-isoquinolin-6-ylamino]-5-bromo-pyrimidin-4-ylamino}-N-methyl-benzamide], for which the IC50 is over 10 nM.
To `CNC(=O)c1ccccc1Nc1nc(Nc2ccc3c(c2)CCN(CC(C)O)C3)ncc1Br` (stereo not drawn) [Compound A138, 2-{5-Bromo-2-[2-(2-hydroxy-propyl)-1,2,3,4-tetrahydro-isoquinolin-6-ylamino]-pyrimidin-4-ylamino}-N-methyl-benzamide] belongs over 10 nM; to `CNC(=O)c1ccccc1Nc1nc(Nc2ccc3c(c2)CCN(S(N)(=O)=O)C3)ncc1Br` [Compound A140, 2-[5-Bromo-2-(2-sulfamoyl-1,2,3,4-tetrahydro-isoquinolin-6-ylamino)-pyrimidin-4-ylamino]-N-methyl-benzamide], over 10 nM.
To `CNC(=O)c1ccccc1Nc1nc(Nc2ccc3c(c2)CCN(CCC(=O)O)C3)ncc1Br` [Compound A141, 3-{6-[5-Bromo-4-(2-methylcarbamoyl-phenylamino)-pyrimidin-2-ylamino]-3,4-dihydro-1H-isoquinolin-2-yl}-propionic acid] belongs over 10 nM; to `CNC(=O)c1ccccc1Nc1nc(Nc2ccc3c(c2)CCN(CCC(N)=O)C3)ncc1Br` [Compound A142, 2-{5-Bromo-2-[2-(2-carbamoyl-ethyl)-1,2,3,4-tetrahydro-isoquinolin-6-ylamino]-pyrimidin-4-ylamino}-N-methyl-benzamide], over 10 nM; to `CNC(=O)c1ccccc1Nc1nc(Nc2ccc3c(c2)CC[N+](C)(C)C3)ncc1Br` [Compound A143, 6-[5-Bromo-4-(2-methylcarbamoyl-phenylamino)-pyrimidin-2-ylamino]-2,2-dimethyl-1,2,3,4-tetrahydro-isoquinolinium; iodide], over 10 nM.
To `CNC(=O)c1ccccc1Nc1nc(Nc2ccc3c(c2)CCN(Cc2ccccn2)C3)ncc1Br` [Compound A144, 2-[5-Bromo-2-(2-pyridin-2-ylmethyl-1,2,3,4-tetrahydro-isoquinolin-6-ylamino)-pyrimidin-4-ylamino]-N-methyl-benzamide] belongs over 10 nM; to `CNC(=O)c1ccccc1Nc1nc(Nc2ccc3c(c2)CCN(Cc2ccncn2)C3)ncc1Br` [Compound A146, 2-[5-Bromo-2-(2-pyrimidin-4-ylmethyl-1,2,3,4-tetrahydro-isoquinolin-6-ylamino)-pyrimidin-4-ylamino]-N-methyl-benzamide], over 10 nM.
`CNC(=O)c1ccccc1Nc1nc(Nc2ccc3c(c2)CNCC3)ncc1Br` [Compound A147, 2-[5-Bromo-2-(1,2,3,4-tetrahydro-isoquinolin-7-ylamino)-pyrimidin-4-ylamino]-N-methyl-benzamide]: the IC50 is over 10 nM.
Regarding `CNC(=O)c1ccccc1Nc1nc(Nc2ccc3c(c2)CN(CC(=O)N2CCOCC2)CC3)ncc1Br` [Compound A148, 2-{5-Bromo-2-[2-(2-morpholin-4-yl-2-oxo-ethyl)-1,2,3,4-tetrahydro-isoquinolin-7-ylamino]-pyrimidin-4-ylamino}-N-methyl-benzamide], the IC50 is over 10 nM.
